The text below walks through data of patent EP0326331B1, “Substituted quinolines and cinnolines” (Dow AgroSciences LLC, priority 1988, dated 1989).

Common to all, as to format: in vivo
For test [1], the system named is Pyricularia oryzae (rice blast). Description: whole plant or invertebrate. The conditions noted are these: disease control rating, foliar spray on rice, 400 ppm (+++ at 100 ppm).
Test [2] relates to Erysiphe graminis tritici (powdery mildew). The test can be described thus: Test 1 greenhouse foliar spray screen, powdery mildew on wheat. The conditions noted are these: disease control rating, foliar spray on wheat, 400 ppm (+++ at 100 ppm).
The test system of test [3] is southern armyworm (Spodopetra eridania Cramer). The test can be described thus: Mite/insect screen, SAW. The note with it: Spodoptera eridania, percent mortality, SAW, read-out: SAW RESULTS %; for mortality at 400 ppm: SM & MA RATE 400 PPM; for mortality at 200 ppm: SM & MA RATE 200 PPM. The method, then: (§1) The compounds of Examples 1-295 were tested for miticidal and insecticidal activity in the following mite/insect screen.
(§2) Each test compound was formulated by dissolving the compound in acetone/alcohol (50:50) mixture containing 23 g of "TOXIMUL R" (sulfonate/nonionic emulsifier blend) and 13 g of "TOXIMUL S" (sulfonate/nonionic emulsifier blend) per liter. These mixtures were then diluted with water to give the indicated concentrations.
(§3) Other plants in the same treatment pot were left uninfested. The leaves were then sprayed with 5 ml of test solution using a DeVilbiss atomizing sprayer at 10 psi. Both surfaces of the leaves were covered until runoff, and then allowed to dry for one hour. Two uninfested leaves were then excised and placed into a Petri dish containing southern armyworm (Spodopetra eridania Cramer).
(§4) After standard exposure periods, percent mortality was evaluated. […]

Test [4] concerns Puccinia recondita tritici (leaf rust). Description: Test 1 greenhouse foliar spray screen, leaf rust on wheat. The conditions noted are these: disease control rating, foliar spray on wheat, 400 ppm (+++ at 100 ppm).
For test [5], the system named is Pseudoperonospora cubensis (downy mildew). Description: Test 1 greenhouse foliar spray screen, downy mildew on squash. The conditions noted are these: disease control rating, foliar spray on squash, 400 ppm (+++ at 100 ppm).
The test system of test [6] is Botrytis cinerea (gray mold). Description: Test 1 greenhouse foliar spray screen, gray mold on grape berries. The note with it: disease control rating, spray on grape berries, 400 ppm (+++ at 100 ppm).
The subject of test [7] is Twospotted spider mites (Tetranychus urticae Koch). Description: Mite/insect screen, SM. The note with it: for mortality at 400 ppm / mortality at 200 ppm: Tetranychus urticae, percent mortality, SAW, read-out: SM RESULTS %; for mortality at 400 ppm: SM & MA RATE 400 PPM; for mortality at 200 ppm: SM & MA RATE 200 PPM. As for the experimental part: as §1, §2, §3, §4
A further test relates to corn rootworm. Description: Mite/insect screen, CRW. The conditions noted are these: percent mortality, read-out: CRW RESULTS %; for mortality at 24 ppm: CRW RATE 24.00 PPM; for mortality at 12 ppm: CRW RATE 12.00 PPM. As for the experimental part: as §1, §2, §4
The subject of test [8] is melon aphids (Aphis gossypii Glover). Description: Mite/insect screen, MA. The note with it: Aphis gossypii, percent mortality, SAW, read-out: MA RESULTS %; for mortality at 400 ppm: SM & MA RATE 400 PPM; for mortality at 200 ppm: SM & MA RATE 200 PPM. As for the experimental part:
as §1, §2, §3, §4

Take `Fc1cccc2c(NCCc3ccccc3Oc3ccccc3)ccnc12` [Example 63, 8-fluoro-N-[2-(2-phenoxyphenyl)ethyl]-4-quinolinamine]: the “RICE BLAST” value in test [1] was “+ (20-89% control at 400 ppm)”. Further, the “POWD MDEW” value in [2] is “- (0-19% control at 400 ppm)”. The mortality at 400 ppm in test [3], in test [7] and in test [8] was 0% each time. For the same molecule, in [4], the “LEAF RUST” value is reported as “+++ (90-100% control at 100 ppm)”. In addition, in test [5], the “DOWN MDEW” value is “++ (90-100% control at 400 ppm)”. In addition, the “GRAY MOLD” value in test [6] is listed as “- (0-19% control at 400 ppm)”. In the test with corn rootworm, the mortality at 24 ppm amounted to 0%.
As for `Cc1ccc2c(NCCc3ccccc3Oc3ccccc3)ccnc2c1C` [Example 64, 7,8-dimethyl-N-[2-(2-phenoxyphenyl)ethyl]-4-quinolinamine], the “RICE BLAST” value in test [1] is “- (0-19% control at 400 ppm)”. The “POWD MDEW” value in test [2] is recorded as “+ (20-89% control at 400 ppm)”. In addition, in [3], the mortality at 200 ppm is 60% and the mortality at 400 ppm was found to be 0%. The “LEAF RUST” value in test [4] is “+ (20-89% control at 400 ppm)”. Also, in test [5], the “DOWN MDEW” value is reported as “+++ (90-100% control at 100 ppm)”. Besides, the “GRAY MOLD” value in test [6] is on record as “- (0-19% control at 400 ppm)”. In test [7], the mortality at 200 ppm was determined as 0% and the mortality at 400 ppm came out at 0%. Further, in the test on corn rootworm, the mortality at 12 ppm worked out at 0% and the mortality at 24 ppm is 0%. Also, in test [8], the mortality at 200 ppm is 0% and the mortality at 400 ppm is 0%.
As for `Clc1ccc(CCNc2ccnc3c(Cl)cccc23)cc1` [Example 85, 8-chloro-N-[2-(4-chlorophenyl)ethyl]-4-quinolinamine], the “RICE BLAST” value in [1] was “- (0-19% control at 400 ppm)”. Besides, in test [2], the “POWD MDEW” value is reported as “- (0-19% control at 400 ppm)”. Besides, in [3], the mortality at 200 ppm was found to be 0% and the mortality at 400 ppm worked out at 0%. The “LEAF RUST” value in test [4] is recorded as “+ (20-89% control at 400 ppm)”. The “DOWN MDEW” value in test [5] was “- (0-19% control at 400 ppm)”. The “GRAY MOLD” value in [6] was “- (0-19% control at 400 ppm)”. Also, in test [7], the mortality at 200 ppm turned out to be 0% and the mortality at 400 ppm worked out at 0%. Besides, in the test on corn rootworm, the mortality at 12 ppm turned out to be 0% and the mortality at 24 ppm was 0%. In test [8], the mortality at 200 ppm was 0% and the mortality at 400 ppm worked out at 0%.
Consider `FC(F)(F)c1cccc2c(NCCc3ccc(Cl)cc3)ccnc12` [Example 86, N-[2-(4-chlorophenyl)ethyl]-8-(trifluoromethyl)-4-quinolinamine], for which the “RICE BLAST” value in test [1] is listed as “- (0-19% control at 400 ppm)”. Moreover, the “POWD MDEW” value in test [2] is “- (0-19% control at 400 ppm)”. For the same molecule, in [3], the mortality at 200 ppm amounted to 0% and the mortality at 400 ppm worked out at 0%. In addition, the “LEAF RUST” value in [4] is “+ (20-89% control at 400 ppm)”. The “DOWN MDEW” value in test [5] is “+ (20-89% control at 400 ppm)”. Further, the “GRAY MOLD” value in [6] was “- (0-19% control at 400 ppm)”. In test [7], the mortality at 200 ppm is 0% and the mortality at 400 ppm came out at 0%. Moreover, in the test with corn rootworm, the mortality at 12 ppm turned out to be 0% and the mortality at 24 ppm turned out to be 0%. Further, in test [8], the mortality at 200 ppm worked out at 0% and the mortality at 400 ppm came to 0%.
For `Fc1cccc2c(NCCc3ccc(Oc4ccccc4)cc3)ccnc12` [Example 90, 8-fluoro-N-[2-(4-phenoxyphenyl)ethyl]-4-quinolinamine], the “RICE BLAST” value in test [1] is reported as “+++ (90-100% control at 100 ppm)”. For the same molecule, the “POWD MDEW” value in test [2] is reported as “- (0-19% control at 400 ppm)”. In test [3], the mortality at 200 ppm worked out at 100% and the mortality at 400 ppm amounted to 0%. The “LEAF RUST” value in [4] is “+++ (90-100% control at 100 ppm)”. For the same molecule, the “DOWN MDEW” value in test [5] is recorded as “+++ (90-100% control at 100 ppm)”. Further, in test [6], the “GRAY MOLD” value is given as “- (0-19% control at 400 ppm)”. Also, in [7], the mortality at 200 ppm worked out at 80% and the mortality at 400 ppm came out at 0%. Besides, in test [7] (summary statement in the description), the activity as miticides entry is reported as “particularly excellent activity”. Besides, in the test on corn rootworm, the mortality at 12 ppm stood at 0% and the mortality at 24 ppm was found to be 0%. In [8], the mortality at 200 ppm amounted to 80% and the mortality at 400 ppm turned out to be 0%.
In the case of `COc1ccccc1CCNc1ccnc2cc(Cl)ccc12` [Example 100, 7-chloro-N-[2-(2-methoxyphenyl)ethyl]-4-quinolinamine], the “RICE BLAST” value in test [1] was “+ (20-89% control at 400 ppm)”. Also, the “POWD MDEW” value in [2] is “+ (20-89% control at 400 ppm)”. For the same molecule, the mortality at 200 ppm in test [3], in [7] and in test [8] was 0% in each case. In addition, the mortality at 400 ppm in [3], in test [7] and in test [8] was 0% in each case. Also, the “LEAF RUST” value in test [4] is “+ (20-89% control at 400 ppm)”. Moreover, the “DOWN MDEW” value in test [5] is “+ (20-89% control at 400 ppm)”. The “GRAY MOLD” value in test [6] is “- (0-19% control at 400 ppm)”. For the same molecule, the mortality at 12 ppm in the test on corn rootworm is 0%. Also, the mortality at 24 ppm in the test on corn rootworm was determined as 0%.
Turning to `Cc1cc(NCCc2ccc(Cl)cc2)c2ccccc2n1` [Example 102, N-[2-(4-chlorophenyl)ethyl]-2-methyl-4-quinolinamine], the “RICE BLAST” value in test [1] is listed as “+ (20-89% control at 400 ppm)”. In test [2], the “POWD MDEW” value was “+ (20-89% control at 400 ppm)”. Further, in test [3], the mortality at 200 ppm worked out at 0% and the mortality at 400 ppm is 50%. Further, the “LEAF RUST” value in test [4] was “- (0-19% control at 400 ppm)”. In addition, in test [5], the “DOWN MDEW” value is on record as “- (0-19% control at 400 ppm)”. Further, in [6], the “GRAY MOLD” value is listed as “- (0-19% control at 400 ppm)”. In test [7], the mortality at 200 ppm stood at 0% and the mortality at 400 ppm turned out to be 0%. In addition, in the test with corn rootworm, the mortality at 12 ppm is 0% and the mortality at 24 ppm was 0%. Moreover, in [8], the mortality at 200 ppm was found to be 0% and the mortality at 400 ppm was determined as 0%.
For `Cc1ccc(C)c2c(NCCc3ccc(Cl)cc3)ccnc12` [Example 109, N-[2-(4-chlorophenyl)ethyl]-5,8-dimethyl-4-quinolinamine], the “RICE BLAST” value in test [1] was “+ (20-89% control at 400 ppm)”. Further, the “POWD MDEW” value in test [2] is reported as “+ (20-89% control at 400 ppm)”. For the same molecule, the mortality at 400 ppm in test [3], in test [7] and in [8] was 0% each time. In addition, in test [4], the “LEAF RUST” value is recorded as “++ (90-100% control at 400 ppm)”. Moreover, the “DOWN MDEW” value in test [5] is “+++ (90-100% control at 100 ppm)”. The “GRAY MOLD” value in test [6] is reported as “- (0-19% control at 400 ppm)”. Also, the mortality at 24 ppm in the test with corn rootworm was determined as 0%.
Consider `Nc1cccc2c(NCCc3ccc(Cl)cc3)ccnc12` [Example 110, N(4)-[2-(4-chlorophenyl)ethyl]-4,8-quinolinediamine], for which the “RICE BLAST” value in [1] was “+ (20-89% control at 400 ppm)”. In test [2], the “POWD MDEW” value is “- (0-19% control at 400 ppm)”. Further, in test [3], the mortality at 200 ppm was 0% and the mortality at 400 ppm is 0%. In [4], the “LEAF RUST” value was “++ (90-100% control at 400 ppm)”. Moreover, the “DOWN MDEW” value in test [5] is reported as “++ (90-100% control at 400 ppm)”. Besides, in test [6], the “GRAY MOLD” value is listed as “- (0-19% control at 400 ppm)”. Also, in test [7], the mortality at 200 ppm came to 0% and the mortality at 400 ppm came out at 0%. In the test with corn rootworm, the mortality at 12 ppm was found to be 0% and the mortality at 24 ppm was found to be 0%. In test [8], the mortality at 200 ppm was determined as 0% and the mortality at 400 ppm was 0%.
